Results as given in paper PMC9516332 (Frontiers in Oncology, 2022).
Read-outs that look alike come from different tables or passages of the source.

System: 134 cancer cell lines
Assay: Cell viability assay (ATPlite, 72 hours), IC50 on cancer cell line panel

**Q.** `CCCS(=O)(=O)Nc1ccc(F)c(C(=O)c2c[nH]c3ncc(-c4ccc(Cl)cc4)cc23)c1F` [vemurafenib] was tested. Which IC50 (HEC-6, read-out: IC50 in cell proliferation assay, HEC-6 cell line (EGFR p.A289V)) did it give?
**A.** > 31.6 µM

**Q.** What about the IC50 (Homo sapiens, 769-P, read-out: IC50 in cell proliferation assay, cell line 769-P) of the same compound?
**A.** > 31.6 µM

**Q.** What about the IC50 (Homo sapiens, 786-0, read-out: IC50 in cell proliferation assay, cell line 786-O) of the same compound?
**A.** 25.1 µM

**Q.** And the IC50 (Homo sapiens, A 172, read-out: IC50 in cell proliferation assay, cell line A-172)?
**A.** > 31.6 µM

**Q.** What about the IC50 (Homo sapiens, A204, read-out: IC50 in cell proliferation assay, cell line A-204) of the same compound?
**A.** > 31.6 µM

**Q.** What about the IC50 (Homo sapiens, A498, read-out: IC50 in cell proliferation assay, cell line A-498) of the same compound?
**A.** 21.6 µM

**Q.** And the IC50 (Homo sapiens, A549, read-out: IC50 in cell proliferation assay, cell line A-549)?
**A.** 31.2 µM

**Q.** And the IC50 (Homo sapiens, A704, read-out: IC50 in cell proliferation assay, cell line A-704)?
**A.** > 31.6 µM

**Q.** What about the IC50 (Homo sapiens, A-375, read-out: IC50 in cell proliferation assay, cell line A-375 (BRAF p.V600E)) of the same compound?
**A.** 1.76 µM

**Q.** And the IC50 (Homo sapiens, A-427, read-out: IC50 in cell proliferation assay, cell line A-427)?
**A.** > 31.6 µM

**Q.** What about the IC50 (Homo sapiens, ACHN, read-out: IC50 in cell proliferation assay, cell line ACHN) of the same compound?
**A.** 20.1 µM

**Q.** And the IC50 (Homo sapiens, AN3-CA, read-out: IC50 in cell proliferation assay, cell line AN3-CA (FGFR2 p.N549K))?
**A.** > 31.6 µM

**Q.** What about the IC50 (Homo sapiens, ASPC1, read-out: IC50 in cell proliferation assay, cell line AsPC-1) of the same compound?
**A.** > 31.6 µM

**Q.** And the IC50 (Homo sapiens, AU565, read-out: IC50 in cell proliferation assay, cell line AU565 (ERBB2 amplification))?
**A.** > 31.6 µM

**Q.** What about the IC50 (Homo sapiens, BT-20, read-out: IC50 in cell proliferation assay, cell line BT-20) of the same compound?
**A.** > 31.6 µM

**Q.** And the IC50 (Homo sapiens, BT-474, read-out: IC50 in cell proliferation assay, cell line BT-474 (ERBB2 amplification))?
**A.** > 31.6 µM

**Q.** What about the IC50 (Homo sapiens, BT-549, read-out: IC50 in cell proliferation assay, cell line BT-549) of the same compound?
**A.** 31.2 µM

**Q.** What about the IC50 (Homo sapiens, BXPC-3, read-out: IC50 in cell proliferation assay, cell line BxPC-3) of the same compound?
**A.** 28.2 µM

**Q.** And the IC50 (Homo sapiens, C-33-A, read-out: IC50 in cell proliferation assay, cell line C-33 A)?
**A.** > 31.6 µM

**Q.** What about the IC50 (Homo sapiens, CAL-27, read-out: IC50 in cell proliferation assay, cell line CAL-27) of the same compound?
**A.** > 31.6 µM

**Q.** What about the IC50 (Homo sapiens, CCF-STTG1, read-out: IC50 in cell proliferation assay, cell line CCF-STTG1) of the same compound?
**A.** > 31.6 µM

**Q.** And the IC50 (Homo sapiens, CCRF-CEM, read-out: IC50 in cell proliferation assay, cell line CCRF-CEM)?
**A.** 27.6 µM

**Q.** What about the IC50 (Homo sapiens, COLO 205, read-out: IC50 in cell proliferation assay, cell line COLO 205 (BRAF p.V600E)) of the same compound?
**A.** 0.744 µM

**Q.** And the IC50 (Homo sapiens, COLO-829, read-out: IC50 in cell proliferation assay, cell line COLO 829 (BRAF p.V600E))?
**A.** 2.22 µM

**Q.** What about the IC50 (Homo sapiens, DLD-1, read-out: IC50 in cell proliferation assay, cell line DLD-1) of the same compound?
**A.** > 31.6 µM

**Q.** And the IC50 (Homo sapiens, DU-4475, read-out: IC50 in cell proliferation assay, cell line DU4475 (BRAF p.V600E))?
**A.** 1.83 µM

**Q.** What about the IC50 (Homo sapiens, Daoy, read-out: IC50 in cell proliferation assay, cell line Daoy) of the same compound?
**A.** > 31.6 µM

**Q.** What about the IC50 (Homo sapiens, DoTc2-4510, read-out: IC50 in cell proliferation assay, cell line DoTc2 4510) of the same compound?
**A.** > 31.6 µM

**Q.** And the IC50 (Homo sapiens, EOL1, read-out: IC50 in cell proliferation assay, cell line EoL-1 (FIP1L1-PDGFRA))?
**A.** 1.62 µM

**Q.** And the IC50 (Homo sapiens, FaDu, read-out: IC50 in cell proliferation assay, cell line FaDu)?
**A.** > 31.6 µM

**Q.** And the IC50 (Homo sapiens, G-361, read-out: IC50 in cell proliferation assay, cell line G-361 (BRAF p.V600E))?
**A.** 3.25 µM

**Q.** And the IC50 (Homo sapiens, HCC827, read-out: IC50 in cell proliferation assay, cell line HCC827 (EGFR exon19del))?
**A.** > 31.6 µM

**Q.** What about the IC50 (Homo sapiens, HCC4006, read-out: IC50 in cell proliferation assay, cell line HCC4006 (EGFR exon19del)) of the same compound?
**A.** > 31.6 µM

**Q.** What about the IC50 (Homo sapiens, HCT-15, read-out: IC50 in cell proliferation assay, cell line HCT 15) of the same compound?
**A.** > 31.6 µM

**Q.** What about the IC50 (Homo sapiens, HCT-116, read-out: IC50 in cell proliferation assay, cell line HCT 116) of the same compound?
**A.** > 31.6 µM

**Q.** What about the IC50 (Homo sapiens, HEC-1, read-out: IC50 in cell proliferation assay, HEC-1 cell line) of the same compound?
**A.** > 31.6 µM

**Q.** What about the IC50 (Homo sapiens, HEC-1B, read-out: IC50 in cell proliferation assay, HEC-1-B cell line (EGFR p.A864V)) of the same compound?
**A.** > 31.6 µM

**Q.** And the IC50 (Homo sapiens, HL-60, read-out: IC50 in cell proliferation assay, HL-60 cell line)?
**A.** > 31.6 µM

**Q.** What about the IC50 (Homo sapiens, HT, read-out: IC50 in cell proliferation assay, HT cell line) of the same compound?
**A.** > 31.6 µM

**Q.** And the IC50 (Homo sapiens, HT-1080, read-out: IC50 in cell proliferation assay, HT-1080 cell line)?
**A.** 9.43 µM

**Q.** And the IC50 (Homo sapiens, Hs746T, read-out: IC50 in cell proliferation assay, Hs 746.T cell line (MET exon14skip + amplification))?
**A.** > 31.6 µM

**Q.** And the IC50 (Homo sapiens, Hs-578T, read-out: IC50 in cell proliferation assay, Hs 578T cell line)?
**A.** 30.6 µM

**Q.** And the IC50 (Homo sapiens, HuTu80, read-out: IC50 in cell proliferation assay, HuTu 80 cell line)?
**A.** > 31.6 µM

**Q.** What about the IC50 (Homo sapiens, J82, read-out: IC50 in cell proliferation assay, J82 cell line) of the same compound?
**A.** > 31.6 µM

**Q.** And the IC50 (Homo sapiens, Jurkat E6.1, read-out: IC50 in cell proliferation assay, Jurkat E6.1 cell line)?
**A.** 28.3 µM

**Q.** And the IC50 (Homo sapiens, K562, read-out: IC50 in cell proliferation assay, K-562 cell line)?
**A.** > 31.6 µM

**Q.** What about the IC50 (Homo sapiens, KATO III, read-out: IC50 in cell proliferation assay, KATO III cell line (FGFR2 amplification)) of the same compound?
**A.** 20.7 µM

**Q.** And the IC50 (Homo sapiens, KG-1, read-out: IC50 in cell proliferation assay, KG-1 cell line (FGFR1OP2-FGFR1))?
**A.** > 31.6 µM

**Q.** And the IC50 (Homo sapiens, KLE, read-out: IC50 in cell proliferation assay, KLE cell line)?
**A.** > 31.6 µM

**Q.** And the IC50 (Homo sapiens, KMS-11, read-out: IC50 in cell proliferation assay, KMS-11 cell line (FGFR3 p.Y373C))?
**A.** 29.5 µM

**Q.** What about the IC50 (Homo sapiens, KU812, read-out: IC50 in cell proliferation assay, Ku812 cell line) of the same compound?
**A.** 28.5 µM

**Q.** And the IC50 (Homo sapiens, Kasumi 1, read-out: IC50 in cell proliferation assay, Kasumi-1 cell line (KIT p.N822K))?
**A.** > 31.6 µM

**Q.** And the IC50 (Homo sapiens, LC-2-ad, read-out: IC50 in cell proliferation assay, LC-2/ad cell line (CCDC6-RET))?
**A.** > 31.6 µM

**Q.** And the IC50 (Homo sapiens, LNCaP-Clone-FGC, read-out: IC50 in cell proliferation assay, LNCaP clone FGC cell line)?
**A.** > 31.6 µM

**Q.** And the IC50 (Homo sapiens, LS174T, read-out: IC50 in cell proliferation assay, LS174T cell line)?
**A.** > 31.6 µM

**Q.** And the IC50 (Homo sapiens, LS-411N, read-out: IC50 in cell proliferation assay, LS411N cell line (BRAF p.V600E))?
**A.** 1.28 µM

**Q.** What about the IC50 (Homo sapiens, LoVo, read-out: IC50 in cell proliferation assay, LoVo cell line) of the same compound?
**A.** > 31.6 µM

**Q.** What about the IC50 (Homo sapiens, MCF7, read-out: IC50 in cell proliferation assay, MCF-7 cell line) of the same compound?
**A.** > 31.6 µM

**Q.** What about the IC50 (Homo sapiens, MDA-MB-231, read-out: IC50 in cell proliferation assay, MDA-MB-231 cell line) of the same compound?
**A.** > 31.6 µM

**Q.** What about the IC50 (Homo sapiens, MDA-MB-453, read-out: IC50 in cell proliferation assay, MDA-MB-453 cell line) of the same compound?
**A.** > 31.6 µM

**Q.** And the IC50 (Homo sapiens, MDA-MB-468, read-out: IC50 in cell proliferation assay, MDA-MB-468 cell line)?
**A.** > 31.6 µM

**Q.** What about the IC50 (Homo sapiens, MG-63, read-out: IC50 in cell proliferation assay, MG-63 cell line) of the same compound?
**A.** > 31.6 µM

**Q.** And the IC50 (Homo sapiens, MIA PaCa-2, read-out: IC50 in cell proliferation assay, MIA PaCa-2 cell line)?
**A.** > 31.6 µM

**Q.** And the IC50 (Homo sapiens, MKN-45, read-out: IC50 in cell proliferation assay, MKN45 cell line (MET amplification))?
**A.** > 31.6 µM

**Q.** What about the IC50 (Homo sapiens, MOLM-13, read-out: IC50 in cell proliferation assay, MOLM-13 cell line (FLT3 ITD)) of the same compound?
**A.** 8.9 µM

**Q.** And the IC50 (Homo sapiens, MOLT-4, read-out: IC50 in cell proliferation assay, MOLT-4 cell line)?
**A.** 30.6 µM
